From US5840697A, “Peptide inhibitors of calmodulin” (Torrey Pines Institute for Molecular Studies, priority 1996, dated 1998)
Square brackets hold non-standard residues; d marks the D form. Peptide text beside a SMILES is read from it.

Assays:
NRK cells = assay: long term stability: number of NRK cells at 48 hr after activation; assay type: cell-based, rat; details: added at 5 hr, counted 48 hr after activation
Source text: The similar activity found for the (L)-amino acid peptides and (D)-amino acid peptides indicate that the inhibition of calmodulin occurs rapidly following the addition of the inhibitory peptides. The peptides' long term stability was then studied by adding Ac-(D)Leu-(D)Trp-(D)Arg-(D)Ile-(D)Leu-(D)Trp-NH2, Ac-Leu-Trp-Arg-Ile-Leu-Trp-NH2 (SEQ ID No. 48), W13 and W12 at 5 hr following the reentry of the NRK cells into the cell cycle and measuring the number of cells at 48 hr after activation.

rat liver cells = assay: in vivo rat model: DNA synthesis of rat liver cells after partial hepatectomy; details: intravenous injection 5 hours after partial hepatectomy, measured 24 hours post hepatectomy
Source text: The effect that calmodulin inhibitors have on DNA synthesis were also studied in vivo in a rat model. Rat liver cells are a useful in vivo system for studying synchronized cells and the cell cycle. By partial hepatectomy, the hepatocyte quiescent cells present in normal adult rat liver can be stimulated to enter the replicative cell cycle and the effect of inhibitors on the cycle analyzed. This example provides the effect of the subject calmodulin inhibitory peptides on the DNA synthesis of rat liver cells in partial hepatectomy stage following intra venal injection of the peptides.
Male Sprague-Dawley rats ([…]; 2 rats per peptide or control) were fasted overnight. Partial hepatectomies were carried out under Ketolar anesthesia (Parke-Davis; Ann Arbor, Mich.), following the procedure described by Higgins and Anderson in Arch. Pathol., 12:186-202 (1931), which is incorporated herein by reference. […] DNA synthesis was assessed by measuring the radioactivity incorporated into DNA following an intraperitoneal injection (0.5 mCi/g body weight) of [^3 H] thymidine 1 hr prior to killing the rat and at 23 hours post hepatectomy. […] The liver tissue was homogenized in 10% trifluoroacetic acid at 4° C. and the DNA extracted and its radioactivity measured following the procedure described by Burton, Biochem. J., 62:315-320 (1956), which is incorporated herein by reference. […]

SMILES: CC[C@@H](C)[C@@H](NC(=O)[C@@H](CCCNC(=N)N)NC(=O)[C@@H](Cc1c[nH]c2ccccc12)NC(=O)[C@@H](CC(C)C)NC(C)=O)C(=O)N[C@H](CC(C)C)C(=O)N[C@H](Cc1c[nH]c2ccccc12)C(N)=O [Ac-(D)Leu-(D)Trp-(D)Arg-(D)Ile-(D)Leu-(D)Trp-NH2] (Ac-[dL][dW][dR][dI][dL][dW]-NH2)
- number of cells relative to control cells (NRK cells): significantly lower number of cells
- % DNA SYNTHESIS (rat liver cells): 50%
